Experiments:
hiPSCs = assay: Cell viability of hiPSCs treated with FK866; assay type: cell-based, human; conditions: up to 72 hours
Description: FIG. 10 presents data regarding FK866 toxicity on human pluripotent stem cells. […] Cell viability data is presented for hiPSCs treated with FK866 for up to 72 hours. […] (B) Cell viability of human pluripotent stem cells 72 hours after treatment initiation with FK866. Cells were treated with a range of concentrations (1 nM to 10 μM) either continuously or for 24 hour pulse.
FIG. 10 presents cell viability data for hiPSCs treated with FK866 (FIG. 9B) for up to 72 hours. […] Therefore, an effective strategy for selectively eliminating pluripotent stem cells is to deplete NAD^+ levels using a NAMPT inhibitor. […] Thus, these compounds will be useful for selectively eliminating tumorigenic cells in cells prepared for transplantation, independent of whether teratoma-causing cells in differentiated cultures are pluripotent or comprise one or more differentiated phenotypes.

hiPSC [1] = assay: Live/dead staining (calcein AM / ethidium homodimer-1); assay type: cell-based, human; conditions: 72 hours, confluent; 2.5 μM STF-31, 30 μM WZB117, 20 μM PluriSIn
Description: (§1) In Vitro Toxicity Assays: Treatment with small molecules or glucose deprivation was initiated in hESC or hiPSC at 24 and 96 h post-plating and in vitro toxicity assays were performed at specified treatment endpoints 24-96 hours after treatment initiation. […] Neutral red assays for cell viability were performed as previously described. In vitro cell death was determined using SYTOX® Green nucleic acid stain (Life Technologies). Briefly, cells were incubated in 5 μM SYTOX® Green for 30 minutes at 37° C. in a humidified cell incubator with 5% CO2. Percent cell viability was determined by normalizing to replicate cells incubated with 120 μM digitonin (Sigma-Aldrich) and 5 μM SYTOX® Green. Imaging of cell viability was performed using Live/Dead® Viability/Cytotoxicity Kit, for mammalian cells (Life Technologies). Cells were stained for 20 minutes at room temperature with 4 μM Calcein AM to detect viable cells and 2 μM Ethidium Homodimer 1 to detect cells with compromised membranes. Representative images of alterations in cell morphology were acquired on confluent hPSC 24-72 hours after treatment initiation. Imaging was performed with a Nikon Ti-U inverted microscope.

[2] = tested on: confluent hiPSC (DF6-9-9T); assay: Bright field imaging of cell morphology; assay type: cell-based, human; conditions: 72 hours, 2.5 μM STF-31, 30 μM WZB117, 20 μM PluriSIn
Description: as §1

confluent hiPSC = assay: Colony formation assay (alkaline phosphatase staining); assay type: cell-based, human; conditions: 24 hour pulse, cells passaged, cultured 6 days
Description: The first iteration was adapted from previously described method, after 24 hours of treatment, hiPSC were detached with Accutase (StemCell Technologies), re-suspended in E8, passed though 12×75 mm tube with cell strainer cap (Falcon), and plated at 5e4 live cells per 2 cm^2. Media were changed every 48 hours and cells were cultured for six days, at which time staining for alkaline phosphatase was performed with leukocyte alkaline phosphatase kit (Sigma-Aldrich) as described and plates were visually inspected for phosphatase-positive colonies. This strategy represents the most common implementation of the colony formation assay. However, concerns regarding the cell death normally encountered during passaging prompted another approach for stricter assessment. In the second iteration, cells were treated for 24 hours, washed twice with 0.5 mL D-PBS, and media refreshed with E8. Thereafter, media were replaced daily for six days at which point staining for alkaline phosphatase activity was performed. […] Elimination of hiPSC from co-cultures with differentiated cells was performed with human fibroblasts and day 10 cardiomyocytes derived from hiPSC. hiPSC (DF6-9-9T) were plated at concentrations ranging from 100-10,000 live cells per well with human fibroblasts (1.75e5 cells) or day 10 differentiated cardiomyocytes (3.75e5 cells) in E8 and Y-27632 per 9.6 cm^2. […] Six days after plating, staining for alkaline phosphatase activity was performed. […] Imaging of wells was performed with a Sony Cyber-shot DSC-TX30 and individual colonies with a Nikon stereoscope.

hiPSC (DF6-9-9T) [3] = assay: SYTOX Green cell viability assay; assay type: cell-based, human; conditions: 72 hours treatment; 2.5 μM STF-31, 30 μM WZB117, 20 μM PluriSIn
Description: as §1

hiPSC (DF6-9-9T) [4] = assay: Neutral red cell viability assay in hiPSC; assay type: cell-based, human; conditions: for elimination of hiPSC: 24 hour treatment, sub-confluent hiPSC; for toxicity: 72 hours
Description: Neutral red assays for cell viability were performed as previously described. In vitro cell death was determined using SYTOX® Green nucleic acid stain (Life Technologies). Briefly, cells were incubated in 5 μM SYTOX® Green for 30 minutes at 37° C. in a humidified cell incubator with 5% CO2. […] Imaging of cell viability was performed using Live/Dead® Viability/Cytotoxicity Kit, for mammalian cells (Life Technologies). Cells were stained for 20 minutes at room temperature with 4 μM Calcein AM to detect viable cells and 2 μM Ethidium Homodimer 1 to detect cells with compromised membranes. […] Imaging was performed with a Nikon Ti-U inverted microscope.

sub-confluent hiPSC [5] = assay: Immunoblot analysis of p-AMPK, AMPK, cleaved caspase-3 and -9; assay type: cell-based, human
Description: Immunoblot Analysis: Non-adherent cells were collected by centrifugation, adherent cells were washed once with d-PBS and lysed in Laemmli buffer, combined with non-adherent cell pellet, and heated at 95° C. for 5 minutes. Protein concentration was measured using the Qubit protein assay (Life Technologies). 25 μg of total protein was separated by SDS-PAGE, transferred to nitrocellulose membrane (GE Healthcare Life Sciences) and blocked according to the manufacturer's instructions. Membranes were incubated overnight at 4° C. with the following dilutions of primary antibodies: rabbit anti-cleaved caspase-3 (1:500), rabbit anti-caspase-9 (1:1000), rabbit anti-phospho-AMPK (1:1000), and rabbit anti-AMPK (1:1,000) from Cell Signaling Technology, and mouse anti-GAPDH (1:10,000) from Life Technologies. Membranes were then incubated with secondary antibodies for 45 minutes at the following concentrations: donkey anti-mouse-horseradish peroxidase (1:5,000) and donkey anti-rabbit-horseradish peroxidase (1:7,000) from Jackson Immunoresearch Laboratories, Inc., followed by detection using enhanced chemiluminescence.

hiPSC [6] = assay: Extracellular flux analysis (ECAR, OCR); assay type: cell-based, human
Description: Extracellular Flux Analysis: hiPSC were plated at 6e4 cells per well on specialized microplate (Seahorse Bioscience) as previously described with several exceptions. Extracellular flux analysis was performed on hiPSC 48 hours post-plating using Seahorse Bioscience XF24 Analyzer. […] The microplate was equilibrated in non-CO2 incubator for 1.5 h, and analyzed for 16 h in Seahorse Bioscience XF24 Analyzer. Assay medium consists of basal E8 reagents with the following exceptions: basal DMEM F-12 without phenol red (Gibco), no sodium bicarbonate, and 2.5 mM GlutaMAX™ (Gibco) and 15 mM Hepes (Gibco). Assay medium was adjusted to pH 7.4 at 37° C. prior to use. Extracellular acidification rate (ECAR) and basal oxygen consumption rate (OCR) were collected approximately every 60 minutes. Treatments were normalized to baseline media control value and are represented as average of thee biological replicates.

sub-confluent hiPSC [7] = assay: Cleaved caspase-3/7 fluorescence based assay; assay type: cell-based, human; conditions: after initiation of treatment; 2.5 μM STF-31, 30 μM WZB117
sub-confluent hiPSC [8] = assay: Glucose uptake assay ([3H]2-deoxyglucose); assay type: cell-based, human; conditions: 1 hour of treatment; 2.5 μM STF-31, 30 μM WZB117
Description: For 1 hour treatment, cells were placed in Krebs-Ringer Hepes (KRH) containing treatment at 37° C. in a humidified cell incubator with 5% CO2. For 15, 18, and 24 hour treatments, cells were treated in E8 medium for 14, 17, and 23 hours, respectively, at which point media was changed to KRH buffer containing specific treatment for 1 hour. After specified treatment time, glucose uptake was performed with 0.5 μCi [^3H]2-deoxyglucose for 5 min at 37° C. as previously described. Uptake data were normalized to protein concentration measured with Lowry method.

[9] = tested on: PAX6 positive neural progenitor cells; assay type: cell-based; conditions: 72 hours continuous STF-31 plus exogenous NA
Text: Data expressed as mean+S.D. (n=4); p<0.05, **p<0.01, ***p<0.001. […] Data expressed as mean+S.D. (n=4), *p<0.05, **p<0.01, ***p<0.001.

[10] = sub-confluent cells, 30 μM WZB117, 20 μM PluriSIn

With `O=C(/C=C/c1cccnc1)NCCCCC1CCN(C(=O)c2ccccc2)CC1` [FK866] the “toxicity to human pluripotent stem cells relative to STF-31” value (hiPSCs) was “toxic to human pluripotent stem cells at lower concentrations than STF-31”.

With `O=C(NNc1ccccc1)c1ccncc1` [PluriSIn] the live/dead staining (hiPSC [1]) was “not toxic”, the “morphology of hiPSC” value [2] was “minimal alterations in the morphology” and the “formation of alkaline phosphatase-positive colonies” value (confluent hiPSC) was “did not prevent colony growth”. For the same molecule, the “cell viability (SYTOX Green)” value (hiPSC (DF6-9-9T) [3]) was “no significant reduction”, the “elimination of hiPSC” value (hiPSC (DF6-9-9T) [4]; 30 μM WZB117, 20 μM PluriSIn) was “eliminated sub-confluent hiPSC” and the “cell death with increasing concentrations” value (hiPSC (DF6-9-9T) [4]; confluent cells, 20-40 μM) was “did not result in cell death”. For the same molecule, the toxicity (hiPSC (DF6-9-9T) [4]; confluent cells, 20 μM PluriSIn) was “did not induce significant toxicity” and the toxicity (hiPSC (DF6-9-9T) [4]; [10]) was “only effective on sub-confluent cells”.

`O=C(Oc1cccc(F)c1OC(=O)c1cccc(O)c1)c1cccc(O)c1` [WZB117] was tested, and the live/dead staining (hiPSC [1]) was “not toxic”, the “morphology of hiPSC” value [2] was “morphological changes such as cell swelling” and the “time at which cleaved caspase-3 and -9 are observed” value (sub-confluent hiPSC [5]; 2.5 μM STF-31, 30 μM WZB117) was 12 h. The “time by which total levels of AMPK decreased” value (sub-confluent hiPSC [5]; 30 μM WZB117) was at most 24 h, the “time at which p-AMPK is detected/increased” value (sub-confluent hiPSC [5]; post-treatment, 2.5 μM STF-31, 30 μM WZB117) was 12 h and the “time before reductions in OCR” value (hiPSC [6]; 2.5 μM STF-31, 30 μM WZB117) was at most 8 h. The “effect on ECAR” value (hiPSC [6]; 30 μM WZB117) was “decrease in ECAR by the earliest timepoint measured”, the “time of induction of caspase-3/7 activity” value (sub-confluent hiPSC [7]) was 12 h and the “decrease in glucose uptake” value (sub-confluent hiPSC [8]) was 20%. The “formation of alkaline phosphatase-positive colonies” value (confluent hiPSC) was “did not prevent colony growth”, the “cell viability (SYTOX Green)” value (hiPSC (DF6-9-9T) [3]) was “no significant reduction” and the “elimination of hiPSC” value (hiPSC (DF6-9-9T) [4]; 30 μM WZB117, 20 μM PluriSIn) was “eliminated sub-confluent hiPSC”. For the same molecule, the toxicity (hiPSC (DF6-9-9T) [4]; confluent cells treated 24 hours post-plating, 30 μM WZB117) was “toxic”, the toxicity (hiPSC (DF6-9-9T) [4]; confluent cells treated 96 hours post-plating, 30 μM WZB117) was “significantly less toxic” and the toxicity (hiPSC (DF6-9-9T) [4]; [10]) was “toxic”.

In the case of `NC(=O)c1cccnc1` [nicotinamide], the “rescue of STF-31 mediated toxicity” value (hiPSC (DF6-9-9T) [4]; 10 and 100 μM nicotinamide, data not shown) is reported as “failed to rescue”.

In the case of `O=C(O)c1cccnc1` [nicotinic acid], the “rescue of cell death caused by STF-31” value [9] is reported as “can be rescued”.
